Like-named read-outs stand apart in the source and are kept apart here.
Key:
[1] = target: T1, HDAC6 (Homo sapiens, UniProt Q9UBN7); test: Human HDAC enzyme inhibitor Fluor-de-Lys assay, HDAC6; assay type: biochemical
T1 sequence (Q9UBN7 1-1215): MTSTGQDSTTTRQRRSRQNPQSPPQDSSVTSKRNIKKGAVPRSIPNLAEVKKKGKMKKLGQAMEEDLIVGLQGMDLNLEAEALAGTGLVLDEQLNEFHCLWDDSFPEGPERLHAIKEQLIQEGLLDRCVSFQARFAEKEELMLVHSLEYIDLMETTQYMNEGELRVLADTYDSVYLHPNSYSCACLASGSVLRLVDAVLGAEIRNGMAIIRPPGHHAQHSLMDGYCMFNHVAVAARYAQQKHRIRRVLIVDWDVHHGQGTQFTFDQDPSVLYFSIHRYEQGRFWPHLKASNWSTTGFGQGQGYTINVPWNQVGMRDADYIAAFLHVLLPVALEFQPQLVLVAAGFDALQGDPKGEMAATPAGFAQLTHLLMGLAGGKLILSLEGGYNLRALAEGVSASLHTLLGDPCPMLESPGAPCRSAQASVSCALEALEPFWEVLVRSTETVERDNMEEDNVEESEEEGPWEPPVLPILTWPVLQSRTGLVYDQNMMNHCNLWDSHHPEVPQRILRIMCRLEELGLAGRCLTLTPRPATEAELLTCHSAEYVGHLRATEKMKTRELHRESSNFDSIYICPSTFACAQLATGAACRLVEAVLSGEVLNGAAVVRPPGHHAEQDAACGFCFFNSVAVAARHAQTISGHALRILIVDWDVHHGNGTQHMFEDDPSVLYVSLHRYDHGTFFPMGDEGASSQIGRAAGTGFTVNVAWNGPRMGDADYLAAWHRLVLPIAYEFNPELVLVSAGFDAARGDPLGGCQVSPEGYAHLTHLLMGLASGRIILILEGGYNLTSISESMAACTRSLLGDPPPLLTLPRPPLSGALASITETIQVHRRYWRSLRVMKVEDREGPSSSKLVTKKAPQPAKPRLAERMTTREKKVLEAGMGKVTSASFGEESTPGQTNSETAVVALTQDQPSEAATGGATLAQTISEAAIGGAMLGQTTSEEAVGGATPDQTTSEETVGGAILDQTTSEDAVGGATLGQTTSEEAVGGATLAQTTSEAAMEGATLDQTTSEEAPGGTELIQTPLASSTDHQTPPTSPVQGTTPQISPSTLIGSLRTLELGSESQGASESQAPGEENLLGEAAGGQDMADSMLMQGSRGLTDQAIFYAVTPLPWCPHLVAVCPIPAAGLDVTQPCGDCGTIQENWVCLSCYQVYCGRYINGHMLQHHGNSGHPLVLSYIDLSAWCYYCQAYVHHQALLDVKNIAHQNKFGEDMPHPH
Method: (§1) Human HDAC Enzyme Inhibitor Fluor-De-Lys Assay
(§2) Recombinant human HDAC8 (BML-SE145-0100) and HDAC10 (BML-SE559-0050) enzymes, HDAC substrates BML-KI104 and BML-KI178, and HDAC developer solutions BML-KI105 and BML-KI176 were purchased from Enzo Life Sciences. […] HDAC inhibitor suberoylanilide hydroxamic acid (SAHA) was obtained from Indofine and trichostatin A (TSA) was obtained from Sigma-Aldrich.
(§3) The histone deacetylase activities of HDAC1, HDAC2, HDAC3, HDAC6, and HDAC8 were measured in modified FLUOR DE LYS assays in 384-well format. In this assay, HDAC enzymes are initially incubated with an ε-acetyl (or -trifluoroacetyl)-L-lysine-containing substrate with a C-terminal amide having aminomethylcoumarin as the amine component. HDACs cleave the ε-acetyl group, rendering the resulting product susceptible to AMC cleavage by trypsin. The released AMC is then detected by its fluorescence.
(§4) The HDAC3/SMRT assay employed buffer B, consisting of 20 mM HEPES, pH 8.0, 1 mM MgCl2, 50 mM NaCl, 2.7 mM KCl, 0.05% BSA, 0.005% Tween 20, and 10 μM IP4. […] The HDAC8 assay employed buffer D, consisting of 20 mM HEPES, pH 8.0, 1 mM MgCl2, 100 mM NaCl, 20 mM KCl, 0.10% n-octyl-β-D-glucoside (Anatrace) and 0.05% BSA. All steps were performed at room temperature (23° C.). The assay was performed by pre-incubating serial dilutions of test compounds with the target HDAC prior to initiation with substrate. Each compound was titrated in a 10-point dose response, using a 1:3 fold dilution scheme, with 0.15 ul of solution added by ECH0555 to the plate, followed by the addition of 20 μl of the appropriate HDAC isoform diluted in appropriate assay buffer. […] Final conditions used for each assay were: 1. HDAC 1, 0.3 nM total enzyme, 20 μM substrate BML-KI104; 2. […] HDAC 3/SMRT, 0.3 nM total enzyme, 20 μM substrate BML-KI104; 4. […] The reactions were stopped and developed by addition of 30 ul of HDAC developer solution containing a saturating level of HDAC inhibitor as follows: 1.

[2] = target: T2, Recombinant human HDAC8 (Homo sapiens, UniProt Q9BY41); test: Human HDAC enzyme inhibitor Fluor-de-Lys assay, HDAC8; assay type: biochemical
T2 construct: purchased Enzo Life Sciences BML-SE145-0100
T2 sequence (Q9BY41 1-377): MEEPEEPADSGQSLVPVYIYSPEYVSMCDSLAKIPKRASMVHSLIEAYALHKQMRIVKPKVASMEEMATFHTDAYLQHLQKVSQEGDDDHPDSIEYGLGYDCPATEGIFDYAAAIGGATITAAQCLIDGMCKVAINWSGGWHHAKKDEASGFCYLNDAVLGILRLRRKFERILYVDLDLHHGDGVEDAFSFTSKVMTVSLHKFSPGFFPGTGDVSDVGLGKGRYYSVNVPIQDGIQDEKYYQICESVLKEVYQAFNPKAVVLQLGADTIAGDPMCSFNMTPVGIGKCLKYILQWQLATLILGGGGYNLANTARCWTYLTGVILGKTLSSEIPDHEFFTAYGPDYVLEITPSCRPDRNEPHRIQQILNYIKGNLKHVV
Method: as §1, §2, §3, §4

[3] = system: KARN cells (Jurkat 2C4); test: cells; assay type: cell-based
Method: KARN cells (Jurkat 2C4) were licensed from the laboratory of Dr. John Karn, Case Western Reserve University, School of Medicine. […] An atmosphere of 5% CO2 and 90% humidity was used for all culture work.
Day 1: After the 3-4 day growth period, the cells were transferred from the T175 flask to a 50 ml conical tube and gently pelleted at 1000 rpm for 5 minutes. […] These flasks were returned to the incubator.
Day 2: Cell Preparation: The next day, the cells were transferred from each T175 flask to an individual 50 ml conical tube and gently pelleted at 1000 rpm for 5 minutes. The cells were gently resuspended in assay media (30 ml) and pelleted again. […] The cells were counted using the ViCell (Beckman Coulter) and diluted as necessary. […] The plates were covered and returned to the incubator prior to compound addition.
The reference compounds, DMSO and SAHA were then added to the compound plate. […] The final high concentration for SAHA and the test compounds in the assays was 40 μM. The final DMSO concentration in all wells was 0.4%. The minimal induction reference compound used was DMSO and the maximal induction reference compound used was SAHA (2 μM final concentration in the assay).
Day 3: The luciferase detection reagent was prepared by transferring the contents of one bottle of Steady-Glo buffer to one bottle of Steady-Glo aubstrate (Steady-Glo Luciferase Assay System, Promega, catalog number E2520), followed by gently mixing until the substrate was thoroughly dissolved and the solution was equilibrated to room temperature. […] The Steady-Glo Reagent was added to the plates (30 μl/well), which were then covered with a black lid and incubated for 10 minutes at room temperature. The plates were then read for luminescence on an Envision (Perkin Elmer) using the ultrasensitive mode (US LUM), […] and 384-well aperture. Luminescence counts in the DMSO reference wells were considered as 0% induction, while those in the 2 μM SAHA reference wells were considered as 100% induction. Dose response curves were plotted as test compound concentration (X-axis) vs. percent activation (Y-axis) using a 4-parameter fit based on the Levenberg-Marquardt algorithm.

[4] = recombinant human HDAC8, Fluor-de-Lys assay
[5] = Homo sapiens, Jurkat, read-out: Karn EC50 (nM) 0.1% NHS, 0.1% normal human serum, luciferase induction, 100% = 2 μM SAHA
[6] = Homo sapiens, Jurkat, read-out: Karn EC50 (nM) 5% NHS, 5% normal human serum, luciferase induction, 100% = 2 μM SAHA
[7] = Homo sapiens, Jurkat, read-out: Karn EC50 (nM) 0.1% NHS, 0.1% normal human serum
[8] = Homo sapiens, Jurkat, read-out: Karn EC50 (nM) 5% NHS, 5% normal human serum

CCC(=O)CCCCC[C@H](NC(=O)[C@H]1CCC12CCN(CC)CC2)c1ncc(-c2cc3ccccc3nc2OC)[nH]1 [Compound 338]
IC50 ([1]; HDAC6, Fluor-de-Lys assay): 405 nM | IC50 [2, 4]: 2930 nM | EC50 [3, 5]: 44 nM | EC50 [3, 6]: 111 nM

CCC(=O)CCCCC[C@H](NC(=O)[C@H]1CC12CCN(Cc1ccc(OC)cc1)CC2)c1ncc(-c2cc3ccccc3nc2OC)[nH]1 [Compound 295]
IC50 ([1]; HDAC6, Fluor-de-Lys assay): 973 nM | IC50 [2, 4]: 3230 nM | EC50 [3, 5]: 113 nM | EC50 [3, 6]: 180 nM

CCC(=O)CCCCC[C@H](NC(=O)[C@H]1CC12CCN(C)CC2)c1ncc(-c2cc3ccc(-n4cccn4)cc3nc2OC)[nH]1 [Compound 176, (1S)—N-[(1S)-1-{5-[2-methoxy-7-(1H-pyrazol-1-yl)quinolin-3-yl]-1H-imidazol-2-yl}-7-oxononyl]-6-methyl-6-azaspiro[2.5]octane-1-carboxamide]
IC50 [1]: > 1500 nM | IC50 [2]: > 4500 nM | EC50 [3, 7]: 45 nM | EC50 [3, 8]: 76 nM

CCC(=O)CCCCC[C@H](NC(=O)[C@H]1CC12CN(C)C2)c1ncc(-c2cc3ccccc3nc2OC)[nH]1 [Compound 323]
IC50 ([1]; HDAC6, Fluor-de-Lys assay): 376 nM | IC50 [2, 4]: 2300 nM | EC50 [3, 5]: 284 nM | EC50 [3, 6]: 1290 nM

CCC(=O)CCCCC[C@H](NC(=O)C1CC12CCC(N(C)C)CC2)c1ncc(-c2cc3ccccc3nc2OC)[nH]1 (single isomer, unassigned) [Compound 127]
IC50 [1]: 364 nM | IC50 [2]: 76 nM | EC50 ([3]; read-out: Karn EC50 (nM) 0.1% NHS, 0.1% normal human serum): 37 nM | EC50 ([3]; read-out: Karn EC50 (nM) 5% NHS, 5% normal human serum): 60 nM

CCC(=O)CCCCC[C@H](NC(=O)C1CCC2(CC1)CN(C)C2)c1ncc(-c2cc3ccccc3nc2OC)[nH]1 [Compound 315]
IC50 ([1]; HDAC6, Fluor-de-Lys assay): 459 nM | IC50 [2, 4]: 1950 nM | EC50 [3, 5]: 86 nM | EC50 [3, 6]: 688 nM

CCC(=O)CCCCC[C@H](NC(=O)[C@H]1CC12CCN(CC1CC1)CC2)c1ncc(-c2cc3cccnc3cc2OC)[nH]1 [Compound 394]
IC50 ([1]; HDAC6, Fluor-de-Lys assay): 76 nM | IC50 [2, 4]: > 900 nM | EC50 [3, 5]: 18 nM | EC50 [3, 6]: 24 nM

CCC(=O)CCCCC[C@H](NC(=O)C1CCC2(CC1)CN(CC)C2)c1ncc(-c2cc3ccccc3nc2OC)[nH]1 [Compound 271]
IC50 ([1]; HDAC6, Fluor-de-Lys assay): 464 nM | IC50 [2, 4]: 1750 nM | EC50 [3, 5]: 154 nM | EC50 [3, 6]: 634 nM

CCC(=O)CCCCC[C@H](NC(=O)[C@H]1CC12CCN(CC)CC2)c1ncc(-c2ccc(C)cc2OC)[nH]1 [Compound 208]
IC50 [1]: 756 nM | IC50 [2]: 1450 nM | EC50 [3, 7]: 53 nM | EC50 [3, 8]: 63 nM

CCC(=O)CCCCC[C@H](NC(=O)[C@H]1CC12CCN(C)CC2)c1ncc(-c2cc3ccc(Cl)cc3nc2OC)[nH]1 [Compound 177]
IC50 [1]: 341 nM | IC50 [2]: 2560 nM | EC50 [3, 7]: 22 nM | EC50 [3, 8]: 41 nM

CCC(=O)CCCCC[C@H](NC(=O)C1CC2(CCN(C)CC2)C1)c1ncc(-c2cc3ccccc3nc2OC)[nH]1 [Compound 277]
IC50 ([1]; HDAC6, Fluor-de-Lys assay): 405 nM | IC50 [2, 4]: 1920 nM | EC50 [3, 5]: 140 nM | EC50 [3, 6]: 708 nM

CCC(=O)CCCCC[C@H](NC(=O)[C@@H]1CC12CCOCC2)c1ncc(-c2cc3ccccc3nc2OC)[nH]1 [Compound 64]
IC50 [1]: 3580 nM | IC50 [2]: 6350 nM | EC50 [3, 7]: 647 nM | EC50 [3, 8]: 5040 nM

CCC(=O)CCCCC[C@H](NC(=O)[C@H]1CC12CCN(C)CC2)c1ncc(-c2cccnc2OC)[nH]1 [Compound 102]
IC50 [1]: 1950 nM | IC50 [2]: 3260 nM | EC50 [3, 7]: 290 nM | EC50 [3, 8]: 301 nM

CCC(=O)CCCCC[C@H](NC(=O)C1CC12CN(C)C2)c1ncc(-c2cc3ccccc3nc2OC)[nH]1 (some centres unmarked) [Compound 312]
IC50 ([1]; HDAC6, Fluor-de-Lys assay): 299 nM | IC50 [2, 4]: 2020 nM | EC50 [3, 5]: 155 nM | EC50 [3, 6]: 633 nM

CCC(=O)CCCCC[C@H](NC(=O)[C@H]1C[C@@]12CCN(C)C2)c1ncc(-c2cc3ccccc3nc2OC)[nH]1 [Compound 328]
IC50 ([1]; HDAC6, Fluor-de-Lys assay): 395 nM | IC50 [2, 4]: 3310 nM | EC50 [3, 5]: 73 nM | EC50 [3, 6]: 322 nM

CCC(=O)CCCCC[C@H](NC(=O)[C@H]1CC12CCOCC2)c1ncc(-c2cc3ccccc3nc2OC)[nH]1 [Compound 63]
IC50 [1]: 619 nM | IC50 [2]: 3090 nM | EC50 [3, 7]: 234 nM | EC50 [3, 8]: 1790 nM

CCC(=O)CCCCC[C@H](NC(=O)[C@H]1CC12CCN(CC)CC2)c1ncc(-c2cc3ccn(CC)c(=O)c3cc2OC)[nH]1 [Compound 245]
IC50 ([1]; HDAC6, Fluor-de-Lys assay): 694 nM | IC50 [2, 4]: 9010 nM | EC50 [3, 5]: 18 nM | EC50 [3, 6]: 22 nM

From patent US12590099B2, “Inhibitors of histone deacetylase useful for the treatment or prevention of HIV infection” (Merck Sharp & Dohme LLC, priority 2018, dated 2026)
